In ChEMBL document CHEMBL3217714, “Synthesis and anti HSV-1 evaluation of novel indole-3,4-diones” (Medchemcomm, 2011):
Activity calls are given as the source filed them. No cut-off for these calls is given here.

Legend:
[1] = tested on: Human alphaherpesvirus 1; test: Antiviral activity against HSV-1 infected in African green monkey Vero cells at 10 to 100 uM by plaque reduction assay; assay type: functional, organism-based
[2] = tested on: Vero; test: Cytotoxicity against African green monkey Vero cells at 1 to 100 uM compound in DMSO by trypan blue exclusion assay; assay type: cell-based; conditions: chlorocebus sabaeus
[3] = tested on: Vero; test: Cytotoxicity against African green monkey Vero cells at 40 to 100 uM compound in water by trypan blue exclusion assay; assay type: cell-based; conditions: chlorocebus sabaeus
[4] = tested on: Human alphaherpesvirus 1; test: Antiviral activity against HSV-1 infected in African green monkey Vero cells assessed as reduction in plaque formation at 10 to 100 uM by inverted microscopy; assay type: functional, organism-based

Structure (SMILES) | inhibition [1] | Activity [2] | Activity [3] | Activity [4]
CC1CC(=O)C2C(=O)C(C)N=C2C1 (stereo not given) | Dose-dependent effect | Non-toxic | Non-toxic | Active
CC1N=C2CC(C)(C)CC(=O)C2C1=O (stereo not given) | Dose-dependent effect | Non-toxic | Non-toxic | –
CC1N=C2CCCC(=O)C2C1=O (stereo not given) | Dose-dependent effect | Non-toxic | Non-toxic | –
